Our source for the inhibition and inhibition of growth values is ChEMBL document CHEMBL3045111, “Synthesis and herbicidal activities of novel 3-(substituted benzyloxy or phenoxy)-6-methyl-4-(3-trifluoromethylphenyl)pyridazine derivatives” (2012).

Each structure is given as a SMILES string.

Type in all cases: functional
Test [1] relates to Spirodela polyrhiza. The test can be described thus: Bleaching herbicidal activity in Spirodela polyrhiza fronds cultured in compound-containing in medium assessed as chlorophyll inhibition at 1 ug/ml after 7 days. The note with it: 168 h.
Test [2] has as its system Brassica rapa subsp. oleifera. The test can be described thus: Post-emergence herbicidal activity against one-leaf stage Brassica rapa subsp. oleifera under greenhouse condition at 750 g /ha measured after 24 days by spray method. As to conditions: 576 h, read-out: GI.
Test [3] deals with Amaranthus retroflexus. The test is described as follows: Post-emergence herbicidal activity against one-leaf stage of Amaranthus retroflexus under greenhouse condition at 750 g /ha measured after 24 days by spray method. As to conditions: 576 h, read-out: GI.
Test [4] deals with Digitaria. The test can be described thus: Pre-emergence herbicidal activity against Digitaria adscendens under greenhouse condition at 750 g /ha measured after 24 days by spray method. As to conditions: in Digitaria adscendens, 576 h, read-out: GI.
The test system of test [5] is Amaranthus retroflexus. The test is described as follows: Pre-emergence herbicidal activity against Amaranthus retroflexus under greenhouse condition at 750 g /ha measured after 24 days by spray method. The note with it: 576 h, read-out: GI.
In test [6] the test system is Echinochloa crus-galli. The test is described as follows: Pre-emergence herbicidal activity against Echinochloa crus-galli (barnyard grass) under greenhouse condition at 750 g /ha measured after 24 days by spray method. The note with it: 576 h, read-out: GI.
Test [7] has as its system Digitaria. The test is described as follows: Post-emergence herbicidal activity against one-leaf stage of Digitaria adscendens under greenhouse condition at 750 g /ha measured after 24 days by spray method. As to conditions: in Digitaria adscendens, 576 h, read-out: GI.
Test [8] has as its system Spirodela polyrhiza. The test can be described thus: Bleaching herbicidal activity in Spirodela polyrhiza fronds cultured in compound-containing in medium assessed as chlorophyll inhibition at 10 ug/ml after 7 days. The note with it: 168 h.
Test [9] relates to Brassica rapa subsp. oleifera. The test can be described thus: Pre-emergence herbicidal activity against Brassica rapa subsp. oleifera under greenhouse condition at 750 g /ha measured after 24 days by spray method. As to conditions: 576 h, read-out: GI.
For test [10], the system named is Echinochloa crus-galli. The test can be described thus: Post-emergence herbicidal activity against one-leaf stage of Echinochloa crus-galli (barnyard grass) under greenhouse condition at 750 g /ha measured after 24 days by spray method. As to conditions: 576 h, read-out: GI.

By inhibition is commonly meant the drop in the measured response relative to a control, in per cent. In the case of `COc1ccccc1COc1nnc(C)cc1-c1cccc(C(F)(F)F)c1`, the inhibition at 1 µg/mL with Spirodela polyrhiza [1] is 18%. Further, the inhibition of growth at 750 g/ha in [2] worked out at 16%; with Amaranthus retroflexus [3], 25%; in the test on Digitaria [4], 33%; in the test on Amaranthus retroflexus [5], 0%; in the test on Echinochloa crus-galli [6] it was 0%; in the test with Digitaria [7], 10%. Also, the figures for the inhibition of growth at 750 g/ha (in test [9]; with Echinochloa crus-galli [10]) were 0% and 1%, respectively. Besides, the inhibition at 10 µg/mL with Spirodela polyrhiza [8] came out at 72%.

Consider `Cc1cc(-c2cccc(C(F)(F)F)c2)c(Oc2ccccc2C)nn1`, for which the inhibition at 1 µg/mL in the test with Spirodela polyrhiza [1] was 8%. In addition, the inhibition of growth at 750 g/ha in test [2] worked out at 55%; in the test with Amaranthus retroflexus [3], 50%; with Digitaria [4] it was 7%; in the test on Amaranthus retroflexus [5], 0%; in the test on Echinochloa crus-galli [6], 0%; in the test with Digitaria [7] it was 11%. Also, the values for the inhibition of growth at 750 g/ha (in test [9]; in the test on Echinochloa crus-galli [10]) were 0% and 24%, respectively. The inhibition at 10 µg/mL in the test with Spirodela polyrhiza [8] was determined as 73%.

Turning to `Cc1cc(-c2cccc(C(F)(F)F)c2)c(OCc2c(Cl)cccc2Cl)nn1`, the inhibition at 1 µg/mL in the test on Spirodela polyrhiza [1] was 4%. Moreover, the inhibition of growth at 750 g/ha was 20% in test [2]; 34% in the test on Amaranthus retroflexus [3]; 41% in the test with Digitaria [4]; 15% in the test with Amaranthus retroflexus [5]; 1% in the test on Echinochloa crus-galli [6]; 0% with Digitaria [7]. The inhibition of growth at 750 g/ha in [9] worked out at 2%; with Echinochloa crus-galli [10] it was 4%. Further, the inhibition at 10 µg/mL in the test with Spirodela polyrhiza [8] worked out at 26%.

Consider `Cc1cccc(COc2nnc(C)cc2-c2cccc(C(F)(F)F)c2)c1`, for which the inhibition at 1 µg/mL in the test on Spirodela polyrhiza [1] is 43%. Further, the inhibition of growth at 750 g/ha in test [2] is 13%; in the test on Amaranthus retroflexus [3], 22%; in the test with Digitaria [4], 0%; with Amaranthus retroflexus [5] it was 0%; in the test with Echinochloa crus-galli [6], 10%; with Digitaria [7], 0%. Also, the inhibition of growth at 750 g/ha (in test [9]; in the test on Echinochloa crus-galli [10]) was 0% each time. Besides, the inhibition at 10 µg/mL in the test with Spirodela polyrhiza [8] was 46%.

Regarding `Cc1cc(-c2cccc(C(F)(F)F)c2)c(OCc2ccc(Cl)cc2)nn1`, the inhibition at 1 µg/mL with Spirodela polyrhiza [1] worked out at 53%. The inhibition of growth at 750 g/ha is 72% in test [2]; 45% in the test on Amaranthus retroflexus [3]; 6% in the test on Digitaria [4]; 9% in the test with Amaranthus retroflexus [5]; 21% in the test on Echinochloa crus-galli [6]; 0% with Digitaria [7]. The values for the inhibition of growth at 750 g/ha (in test [9]; with Echinochloa crus-galli [10]) were 17% and 0%, respectively. Further, the inhibition at 10 µg/mL in the test with Spirodela polyrhiza [8] stood at 66%.

As for `Cc1cc(-c2cccc(C(F)(F)F)c2)c(OCc2cccc(Br)c2)nn1`, the inhibition at 1 µg/mL in the test on Spirodela polyrhiza [1] was 66%. For the same compound, the inhibition of growth at 750 g/ha in test [2] was found to be 65%; with Amaranthus retroflexus [3], 39%; with Digitaria [4], 0%; with Amaranthus retroflexus [5] it was 0%; in the test on Echinochloa crus-galli [6], 7%; with Digitaria [7], 3%. In addition, the figures for the inhibition of growth at 750 g/ha (in test [9]; in the test on Echinochloa crus-galli [10]) were 0% and 4%, respectively. The inhibition at 10 µg/mL with Spirodela polyrhiza [8] came to 83%.

In the case of `Cc1cc(-c2cccc(C(F)(F)F)c2)c(Oc2c(C)cccc2C)nn1`, in the test on Spirodela polyrhiza [1], the inhibition at 1 µg/mL was determined as 8%. Also, the inhibition of growth at 750 g/ha in test [2] stood at 0%; in the test on Amaranthus retroflexus [3], 34%; with Digitaria [4], 13%; in the test with Amaranthus retroflexus [5], 19%; in the test with Echinochloa crus-galli [6], 2%; in the test on Digitaria [7], 0%. In addition, the inhibition of growth at 750 g/ha (in [9]; with Echinochloa crus-galli [10]) was 0% in each case. The inhibition at 10 µg/mL in the test with Spirodela polyrhiza [8] was 9%.

Turning to `Cc1cc(-c2cccc(C(F)(F)F)c2)c(OCc2ccccc2F)nn1`, the inhibition at 1 µg/mL with Spirodela polyrhiza [1] was 65%. Moreover, the inhibition of growth at 750 g/ha is 79% in test [2]; 39% in the test with Amaranthus retroflexus [3]; 10% in the test on Digitaria [4]; 4% in the test on Amaranthus retroflexus [5]; 13% in the test with Echinochloa crus-galli [6]; 0% in the test on Digitaria [7]. Besides, the inhibition of growth at 750 g/ha in test [9] was determined as 28%; in the test on Echinochloa crus-galli [10] it was 19%. For the same compound, the inhibition at 10 µg/mL in the test on Spirodela polyrhiza [8] is 71%.

Consider `Cc1cc(-c2cccc(C(F)(F)F)c2)c(Oc2ccccc2C(F)(F)F)nn1`, for which, in the test on Spirodela polyrhiza [1], the inhibition at 1 µg/mL is 32%. Besides, the inhibition of growth at 750 g/ha in test [2] came to 46%; with Amaranthus retroflexus [3], 3%; with Digitaria [4], 0%; with Amaranthus retroflexus [5], 0%; with Echinochloa crus-galli [6] it was 11%; in the test with Digitaria [7], 0%. For the same compound, the values for the inhibition of growth at 750 g/ha (in [9]; in the test on Echinochloa crus-galli [10]) were 10% and 12%, respectively. The inhibition at 10 µg/mL in the test with Spirodela polyrhiza [8] came out at 37%.

In the case of `Cc1cc(-c2cccc(C(F)(F)F)c2)c(Oc2ccc(C(C)(C)C)cc2)nn1`, the inhibition at 1 µg/mL in the test with Spirodela polyrhiza [1] is 0%. The inhibition of growth at 750 g/ha stood at 44% in test [2]; 38% with Amaranthus retroflexus [3]; 4% in the test with Digitaria [4]; 0% in the test on Amaranthus retroflexus [5]; 0% in the test on Echinochloa crus-galli [6]; 0% in the test on Digitaria [7]. Moreover, the inhibition of growth at 750 g/ha in test [9] came to 1%; with Echinochloa crus-galli [10], 33%. The inhibition at 10 µg/mL with Spirodela polyrhiza [8] turned out to be 35%.

With `Cc1cc(-c2cccc(C(F)(F)F)c2)c(OCc2ccc(N(C)C)cc2)nn1`, the inhibition at 1 µg/mL in the test on Spirodela polyrhiza [1] was found to be 64%. Besides, the inhibition of growth at 750 g/ha came out at 7% in test [2]; 21% in the test on Amaranthus retroflexus [3]; 6% in the test with Digitaria [4]; 11% in the test on Amaranthus retroflexus [5]; 17% in the test on Echinochloa crus-galli [6]; 11% with Digitaria [7]. In addition, the inhibition of growth at 750 g/ha in test [9] was 4%; with Echinochloa crus-galli [10], 0%. Moreover, in the test with Spirodela polyrhiza [8], the inhibition at 10 µg/mL stood at 97%.

In the case of `Cc1ccc(COc2nnc(C)cc2-c2cccc(C(F)(F)F)c2)cc1`, the inhibition at 1 µg/mL in the test with Spirodela polyrhiza [1] was determined as 20%. Also, the inhibition of growth at 750 g/ha in [2] was 41%; in the test on Amaranthus retroflexus [3] it was 22%; in the test on Digitaria [4], 4%; in the test with Amaranthus retroflexus [5] it was 9%; in the test with Echinochloa crus-galli [6], 28%; in the test on Digitaria [7], 0%. For the same compound, the inhibition of growth at 750 g/ha amounted to 0% in [9] and 6% in the test on Echinochloa crus-galli [10]. In addition, in the test with Spirodela polyrhiza [8], the inhibition at 10 µg/mL was 31%.

As for `Cc1cc(-c2cccc(C(F)(F)F)c2)c(OCc2ccc(Br)cc2)nn1`, in the test with Spirodela polyrhiza [1], the inhibition at 1 µg/mL was 14%. Besides, the inhibition of growth at 750 g/ha in [2] is 20%; in the test with Amaranthus retroflexus [3], 23%; with Digitaria [4], 0%; in the test on Amaranthus retroflexus [5], 0%; with Echinochloa crus-galli [6] it was 4%; in the test on Digitaria [7], 0%. Also, the results for the inhibition of growth at 750 g/ha (in test [9]; in the test on Echinochloa crus-galli [10]) were 0% and 15%, respectively. Also, the inhibition at 10 µg/mL with Spirodela polyrhiza [8] is 27%.

`Cc1cc(-c2cccc(C(F)(F)F)c2)c(OCc2ccc(Cl)cc2Cl)nn1`: the inhibition at 1 µg/mL in the test on Spirodela polyrhiza [1] came to 38%. Further, the inhibition of growth at 750 g/ha in test [2] turned out to be 43%; with Amaranthus retroflexus [3], 35%; in the test on Digitaria [4] it was 0%; in the test on Amaranthus retroflexus [5], 3%; in the test on Echinochloa crus-galli [6], 18%; in the test with Digitaria [7] it was 0%. For the same compound, the inhibition of growth at 750 g/ha in test [9] is 2%; with Echinochloa crus-galli [10] it was 0%. For the same compound, the inhibition at 10 µg/mL in the test on Spirodela polyrhiza [8] was 44%.

For `Cc1cc(C)cc(Oc2nnc(C)cc2-c2cccc(C(F)(F)F)c2)c1`, the inhibition at 1 µg/mL with Spirodela polyrhiza [1] was found to be 42%. Further, the inhibition of growth at 750 g/ha in test [2] was 56%; with Amaranthus retroflexus [3], 8%; in the test with Digitaria [4], 11%; in the test on Amaranthus retroflexus [5], 10%; with Echinochloa crus-galli [6], 10%; in the test with Digitaria [7], 0%. For the same compound, the inhibition of growth at 750 g/ha in test [9] amounted to 0%; in the test on Echinochloa crus-galli [10], 6%. The inhibition at 10 µg/mL in the test on Spirodela polyrhiza [8] is 63%.

With `Cc1cc(-c2cccc(C(F)(F)F)c2)c(Oc2ccccc2-c2ccccc2)nn1`, in the test on Spirodela polyrhiza [1], the inhibition at 1 µg/mL is 29%. Further, the inhibition of growth at 750 g/ha in test [2] came to 0%; in the test with Amaranthus retroflexus [3] it was 25%; in the test with Digitaria [4], 0%; with Amaranthus retroflexus [5] it was 18%; with Echinochloa crus-galli [6], 0%; in the test with Digitaria [7], 0%. For the same compound, the inhibition of growth at 750 g/ha (in test [9]; in the test on Echinochloa crus-galli [10]) was 0% in each case. Moreover, the inhibition at 10 µg/mL with Spirodela polyrhiza [8] turned out to be 33%.
